# Reference: patent US20210386367A1, “DEVICES AND SYSTEMS FOR GASTROINTESTINAL MICROBIOME DETECTION AND MANIPULATION” (Progenity, Inc., priority 2018, published 2021)
# Entries after “also recorded” stand apart in the source; their conditions may differ.
# Columns and labels:
# [1] = system: Streptococcus spp. spontaneous mutants; conditions: S. pneumoniae ATCC 49619; CLSI QC range shown in parentheses; cited from earlier work
# [2] = system: Streptococcus pyogenes clinical isolates; assay: MIC distribution against clinical isolates; format: cell-based; conditions: 19 S. pyogenes isolates
# Method in brief: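 MIC is the lowest agent concentration preventing growth, determined by broth or agar dilution with serial compound dilutions and incubation under appropriate conditions (e.g., overnight at 37° C.). MIC90 is the concentration inhibiting ≥90% of isolates in the test population.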
# B. vulgatus ATCC 8482 = assay: Time-kill assay; format: cell-based, Bacteroides vulgatus; conditions: 2×, 4×, 8× MIC; 2, 6, 24, 48 hr
# [3] = system: E. coli, Streptococcus spp., and Bacteroides spp. isolates; format: cell-based
# Experimental: Initial values of the MIC were determined by agar dilution in accordance with guidelines from the Clinical and Laboratory Standards Institute (CLSI; (1) “Methods for Dilution Antimicrobial Susceptibility Tests for Bacteria That Grow Aerobically; Approved Standard; 11th ed.,” CLSI standard M07, 2018; (2) “Methods for Antimicrobial Susceptibility Testing of Anaerobic Bacteria; Approved Standard—Eighth Edition,” CLSI document M11-A8, 2012.).
# If there were no colonies on the antibiotic selection plates, the spontaneous mutation frequency was reported as less than the frequency observed with one colony to indicate that the spontaneous mutation frequency was less than the limit of detection (one CFU). […] The mutation prevention concentration (MPC) was reported as the lowest concentration for which no mutants were selected.
# E. coli MMX 1312 = assay: Time-kill assay; format: cell-based, Escherichia coli; conditions: for time-kill kinetics outcome (bactericidal = ≥3 log reduction in CFU per mL): 2×, 4×, 8× MIC, 2, 6, 24 hr
# Clostridium spp. = assay: Agar dilution MIC, 10 clinical isolates; format: cell-based; conditions: for Mode: modal MIC
# [4] = system: Staphylococcus aureus clinical isolates; assay: MIC distribution against clinical isolates; format: cell-based; conditions: 50 S. aureus isolates
# Excerpt: (§1) As used herein, “minimum inhibitory concentration” or “MIC” refers to the lowest concentration of an antimicrobial agent, for example, an antimicrobial agent as described herein, required to inhibit the growth of an organism.
# (§2) Many susceptibility testing methods are known in the art and can be used as described herein (see, e.g., Jorgensen and Ferraro (2009) Clinical Infectious Diseases 49:1749-1755; and Maurer et al. (2017) Infectious Disease Reports 9:6839; the entire contents of each of the foregoing are incorporated herein by reference). For example, antimicrobial susceptibility can be determined using conventional culture based methods such as the broth or agar dilution test. In these dilution tests, the bacterial isolate of interest is inoculated onto different media that include serial dilutions of an antimicrobial agent, and incubated under appropriate conditions (e.g., overnight at 37° C.) to allow for growth to occur. Following the incubation period, the media is examined to determine bacterial growth. The lowest concentration of antibiotic that prevents growth represents the minimal inhibitory concentration (MIC). Broth dilution tests can be miniaturized and mechanized allowing for reproducibility and high throughput.
# [5] = system: Enterococcus faecalis clinical isolates; assay: MIC distribution against clinical isolates; format: cell-based; conditions: 50 E. faecalis isolates
# Excerpt: as §1, §2
# [6] = 10 Clostridium spp. clinical isolates
smiles,measurement,setting,value
C[C@@H](O)[C@H]1C(=O)N2C(C(=O)O)=C(S[C@@H]3CN[C@H](C(=O)N(C)C)C3)[C@H](C)[C@H]12 [meropenem],"MIC, CLSI QC range",[1],(0.03-0.25) μg/mL
same,Cumulative percentage of isolates inhibited at MIC,[2]; MIC 0.004 μg/mL,78.9%
same,Number of test isolates at MIC,[2]; MIC 0.004 μg/mL,14
same,Cumulative percentage of isolates inhibited at MIC,[2]; MIC 0.008 μg/mL,94.7%
same,Number of test isolates at MIC,[2]; MIC 0.008 μg/mL,3
same,Cumulative percentage of isolates inhibited at MIC,[2]; MIC 0.03 μg/mL,100.0%
same,Number of test isolates at MIC,[2]; MIC 0.03 μg/mL,1
same,Cumulative percentage of isolates inhibited at MIC,[2]; MIC ≤0.002 μg/mL,5.3%
same,Number of test isolates at MIC,[2]; MIC ≤0.002 μg/mL,1
same,time-kill kinetics outcome (bactericidal = ≥3 log reduction in CFU per mL),B. vulgatus ATCC 8482,bactericidal effect at 24 and 48 hr at 4× and 8×MIC
same,propensity for spontaneous resistance,[3]; SIBO pathogens in vitro,little propensity for resistance to develop spontaneously
same,MPC values,[3]; across the evaluated isolates,equivalent to 4× the MIC
same,time-kill kinetics outcome (bactericidal = ≥3 log reduction in CFU per mL),E. coli MMX 1312,regrowth was observed at 24 hr for all concentrations
same,CFU decrease,"E. coli MMX 1312; 8×MIC, 6 hr timepoint",3 log10 CFU
same,isolates susceptible,Clostridium spp.,One hundred
same,relative activity among drugs tested,Clostridium spp.,meropenem and metronidazole had similar activity; also recorded: most active agent
same,% S,Clostridium spp.; [6],100%
same,MIC50,Clostridium spp.; [6],1 µg/mL
same,MIC90,Clostridium spp.; [6],2 µg/mL
same,MIC range,Clostridium spp.; [6],0.06 to 2 µg/mL
same,MIC50,Clostridium spp.; Clostridium,1 µg/mL
same,MIC90,Clostridium spp.; Clostridium,2 µg/mL
same,Mode,Clostridium spp.; [6],1 µg/mL
same,Cumulative percentage of isolates inhibited at MIC,[4]; MIC 0.06 μg/mL,12.0%
same,Number of test isolates at MIC,[4]; MIC 0.06 μg/mL,6
same,Cumulative percentage of isolates inhibited at MIC,[4]; MIC 0.5 μg/mL,46.0%
same,Number of test isolates at MIC,[4]; MIC 0.5 μg/mL,1
same,Cumulative percentage of isolates inhibited at MIC,[4]; MIC 1 μg/mL,52.0%
same,Number of test isolates at MIC,[4]; MIC 1 μg/mL,3
same,Cumulative percentage of isolates inhibited at MIC,[4]; MIC 2 μg/mL,56.0%
same,Number of test isolates at MIC,[4]; MIC 2 μg/mL,2
same,Cumulative percentage of isolates inhibited at MIC,[4]; MIC 4 μg/mL,78.0%
same,Number of test isolates at MIC,[4]; MIC 4 μg/mL,11
same,Cumulative percentage of isolates inhibited at MIC,[4]; MIC 8 μg/mL,94.0%
same,Number of test isolates at MIC,[4]; MIC 8 μg/mL,8
same,Cumulative percentage of isolates inhibited at MIC,[4]; MIC 16 μg/mL,96.0%
same,Number of test isolates at MIC,[4]; MIC 16 μg/mL,1
same,Cumulative percentage of isolates inhibited at MIC,[4]; MIC >16 μg/mL,100.0%
same,Number of test isolates at MIC,[4]; MIC >16 μg/mL,2
same,Cumulative percentage of isolates inhibited at MIC,[5]; MIC 0.5 μg/mL,2.0%
same,Number of test isolates at MIC,[5]; MIC 0.5 μg/mL,1
same,Cumulative percentage of isolates inhibited at MIC,[5]; MIC 1 μg/mL,8.0%
same,Number of test isolates at MIC,[5]; MIC 1 μg/mL,3
same,Cumulative percentage of isolates inhibited at MIC,[5]; MIC 2 μg/mL,24.0%
same,Number of test isolates at MIC,[5]; MIC 2 μg/mL,8
same,Cumulative percentage of isolates inhibited at MIC,[5]; MIC 4 μg/mL,72.0%
same,Number of test isolates at MIC,[5]; MIC 4 μg/mL,24
same,Cumulative percentage of isolates inhibited at MIC,[5]; MIC 8 μg/mL,96.0%
same,Number of test isolates at MIC,[5]; MIC 8 μg/mL,12
same,Cumulative percentage of isolates inhibited at MIC,[5]; MIC 16 μg/mL,98.0%
same,Number of test isolates at MIC,[5]; MIC 16 μg/mL,1
same,Cumulative percentage of isolates inhibited at MIC,[5]; MIC >16 μg/mL,100.0%
same,Number of test isolates at MIC,[5]; MIC >16 μg/mL,1
CO/N=C(\C(=O)N[C@@H]1C(=O)N2C(C(=O)O)=C(CSc3nc(=O)c(=O)[nH]n3C)CS[C@H]12)c1csc(N)n1 [ceftriaxone],"MIC, CLSI QC range",[1],(0.03-0.12)^1 μg/mL
same,Cumulative percentage of isolates inhibited at MIC,[2]; MIC 0.015 μg/mL,84.2%
same,Number of test isolates at MIC,[2]; MIC 0.015 μg/mL,16
same,Cumulative percentage of isolates inhibited at MIC,[2]; MIC 0.03 μg/mL,94.7%
same,Number of test isolates at MIC,[2]; MIC 0.03 μg/mL,2
same,Cumulative percentage of isolates inhibited at MIC,[2]; MIC 0.06 μg/mL,100.0%
same,Number of test isolates at MIC,[2]; MIC 0.06 μg/mL,1
same,time-kill kinetics outcome (bactericidal = ≥3 log reduction in CFU per mL),B. vulgatus ATCC 8482,"bactericidal effect was observed at 8×MIC at 6, 24 and 48 hr; at 4×MIC at 6 and 24 hr; and at 2×MIC at 48 hr"
same,overall MPC values,"[3]; remaining isolates (E. coli, Streptococcus spp.)",0.12 to 0.25 µg/mL
same,time-kill kinetics outcome (bactericidal = ≥3 log reduction in CFU per mL),E. coli MMX 1312,killing at 6 and 24 hr that approached 3-logs
same,isolates susceptible,Clostridium spp.,all the isolates were susceptible
same,% S,Clostridium spp.; [6],100%
same,MIC50,Clostridium spp.; [6],8 µg/mL
same,MIC90,Clostridium spp.; [6],16 µg/mL
same,MIC range,Clostridium spp.; [6],0.5 to 16 µg/mL
same,MIC50,Clostridium spp.; Clostridium,8 µg/mL
same,MIC90,Clostridium spp.; Clostridium,16 µg/mL
same,Mode,Clostridium spp.; [6],16 µg/mL
same,Number of test isolates at MIC,[4]; MIC 0.008 μg/mL,0
same,Cumulative percentage of isolates inhibited at MIC,[4]; MIC 2 μg/mL,6.0%
same,Number of test isolates at MIC,[4]; MIC 2 μg/mL,3
same,Cumulative percentage of isolates inhibited at MIC,[4]; MIC 4 μg/mL,38.0%
same,Number of test isolates at MIC,[4]; MIC 4 μg/mL,16
same,Cumulative percentage of isolates inhibited at MIC,[4]; MIC 8 μg/mL,44.0%
same,Number of test isolates at MIC,[4]; MIC 8 μg/mL,3
same,Cumulative percentage of isolates inhibited at MIC,[4]; MIC 32 μg/mL,52.0%
same,Number of test isolates at MIC,[4]; MIC 32 μg/mL,4
same,Cumulative percentage of isolates inhibited at MIC,[4]; MIC 64 μg/mL,56.0%
same,Number of test isolates at MIC,[4]; MIC 64 μg/mL,2
same,Number of test isolates at MIC,[4]; MIC >16 μg/mL,2
same,Cumulative percentage of isolates inhibited at MIC,[4]; MIC >64 μg/mL,100.0%
same,Number of test isolates at MIC,[4]; MIC >64 μg/mL,22
same,Cumulative percentage of isolates inhibited at MIC,[5]; MIC 1 μg/mL,2.0%
same,Number of test isolates at MIC,[5]; MIC 1 μg/mL,1
same,Cumulative percentage of isolates inhibited at MIC,[5]; MIC 16 μg/mL,4.0%
same,Number of test isolates at MIC,[5]; MIC 16 μg/mL,1
same,Cumulative percentage of isolates inhibited at MIC,[5]; MIC 64 μg/mL,10.0%
same,Number of test isolates at MIC,[5]; MIC 64 μg/mL,3
same,Cumulative percentage of isolates inhibited at MIC,[5]; MIC >64 μg/mL,100.0%
same,Number of test isolates at MIC,[5]; MIC >64 μg/mL,45
